According to patent US12247032B2, “Substituted pyrazolo[1,5-a]pyrimidines as inhibitors of JAK kinases” (Genentech, Inc., priority 2019, dated 2025):

Columns and labels:
[1] = molecular target: T1, recombinant human JAK1 kinase domain protein (Residues 854-1154) (Homo sapiens, UniProt P23458); experiment: JAK1 biochemical assay (microfluidic mobility shift, peptide phosphorylation); details: 25 μM ATP, 1 nM total JAK1; Ki calculated from Ki app (tight-binding, competitive); read-out: Biochem JAK1 Ki
T1 construct: human JAK1 kinase domain protein (Residues 854-1154); purchased Proteros Biostructures GmbH (Martinsried, Germany); host or cells: insect cells
Outline: (§1)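 Insect-cell-expressed human JAK1 (1 nM, residues 854-1154) or JAK2 (0.2 nM, residues 812-1132) phosphorylating 1.5 μM 5-FAM peptide Y-1B with 25 μM ATP, pH 7.2 HEPES, 30 min at 22-23 °C; twelve concentrations up to 1000 nM in duplicate. Mobility-shift % conversion fitted to tight-binding quadratic for Ki^app.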

[2] = molecular target: T2, Recombinant human JAK2 kinase domain protein (Residues 812-1132) (Homo sapiens, UniProt O60674); experiment: JAK2 biochemical assay (microfluidic mobility shift, peptide phosphorylation); details: 25 μM ATP, 0.2 nM total JAK2; Ki calculated from Ki app (tight-binding, competitive); read-out: Biochem JAK2 Ki
T2 construct: human JAK2 kinase domain protein (Residues 812-1132); made in house; host or cells: insect cells
Outline: as §1

[3] = tested on: JAK1 (IL-13-stimulated STAT6 phosphorylation in BEAS-2B cells); experiment: P-STAT6 BEAS-2B+IL-13 cell assay; format: cell-based, human; details: Homo sapiens, BEAS-2B, 1 h, 1 hour compound, IL-13 15 minutes, IC50 by four-parameter fit, read-out: Cellular JAK1 PSTAT6 BEAS2B + IL13
Outline: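 BEAS-2B human bronchial epithelial cells preincubated 1 h at 37 °C with compound, then stimulated with human recombinant IL-13 for 15 min. Phospho-STAT6 (Tyr641) in lysates measured by MSD electrochemiluminescence immunoassay; IC50 from a four-parameter logistic fit of percent of control.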

T2 sequence (O60674 812-1132): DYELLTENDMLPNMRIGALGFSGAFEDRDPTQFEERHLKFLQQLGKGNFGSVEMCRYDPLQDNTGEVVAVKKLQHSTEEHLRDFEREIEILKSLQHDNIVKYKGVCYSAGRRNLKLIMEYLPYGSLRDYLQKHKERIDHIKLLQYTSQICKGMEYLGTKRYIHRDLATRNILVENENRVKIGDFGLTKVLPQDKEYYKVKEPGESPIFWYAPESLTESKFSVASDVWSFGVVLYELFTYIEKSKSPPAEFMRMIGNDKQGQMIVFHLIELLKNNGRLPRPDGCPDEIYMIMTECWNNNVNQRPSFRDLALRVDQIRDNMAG
T1 sequence (P23458 854-1154): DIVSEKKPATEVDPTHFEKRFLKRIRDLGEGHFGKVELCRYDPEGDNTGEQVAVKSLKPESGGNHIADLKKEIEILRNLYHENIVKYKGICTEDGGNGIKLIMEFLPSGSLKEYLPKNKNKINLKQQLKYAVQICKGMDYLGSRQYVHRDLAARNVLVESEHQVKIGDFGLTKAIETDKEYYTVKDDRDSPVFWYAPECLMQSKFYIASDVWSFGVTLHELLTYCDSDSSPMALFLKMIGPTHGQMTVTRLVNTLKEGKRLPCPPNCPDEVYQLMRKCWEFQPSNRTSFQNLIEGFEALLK

| SMILES | Ki [1] [nM] | Ki [2] [nM] | IC50 [3] [nM] |
| --- | --- | --- | --- |
| CN(C)CCCN1CC(n2nnc(Cn3cc(NC(=O)c4cnn5cccnc45)c(-c4cc(C5CC5)ccc4OC(F)F)n3)n2)C1 [Example 57, N-[3-[5-cyclopropyl-2-(difluoromethoxy)phenyl]-1-[[2-[1-[3-(dimethylamino)propyl]azetidin-3-yl]tetrazol-5-yl]methyl]pyrazol-4-yl]pyrazolo[1,5-a]pyrimidine-3-carboxamide] | 0.71 | 0.55 | 73 |
| CN(C)CCCN1CC(n2nnc(Cn3cc(NC(=O)c4cnn5cccnc45)c(-c4cc(Cl)ccc4OC(F)F)n3)n2)C1 [Example 62, N-[3-[5-chloro-2-(difluoromethoxy)phenyl]1-[[2-[1-[3-(dimethylamino)propyl]azetidin-3-yl]tetrazol-5-yl]methyl]pyrazol-4-yl]pyrazolo[1,5-a]pyrimidine-3-carboxamide] | 0.66 | 0.38 | 38 |
| CN(C)CCCN1CC(n2nnnc2Cn2cc(NC(=O)c3cnn4cccnc34)c(-c3cc(OC(F)F)ccc3OC(F)F)n2)C1 [Example 65, N-[3-[2,5-bis(difluoromethoxy)phenyl]-1-[[1-[1-[3-(dimethylamino)propyl]azetidin-3-yl]tetrazol-5-yl]methyl]pyrazol-4-yl]pyrazolo[1,5-a]pyrimidine-3-carboxamide] | 0.41 | 0.38 | 660 |
| NC1CCC(n2nnnc2Cn2cc(NC(=O)c3cnn4cccnc34)c(-c3cc(OC(F)F)ccc3OC(F)F)n2)CC1 (stereo not drawn) [Example 69, N-[1-[[1-(4-aminocyclohexyl)tetrazol-5-yl]methyl]-3-[2,5-bis(difluoromethoxy)phenyl]pyrazol-4-yl]pyrazolo[1,5-a]pyrimidine-3-carboxamide] | 0.75 | 0.97 | ≥ 1000 |
| CN(C)C(C)(C)CCN1CC(n2nnc(Cn3cc(NC(=O)c4cnn5cccnc45)c(-c4cc(OC(F)F)ccc4OC(F)F)n3)n2)C1 [Example 77, N-[3-[2,5-bis(difluoromethoxy)phenyl]-1-[[2-[1-[3-(dimethylamino)-3-methyl-butyl]azetidin-3-yl]tetrazol-5-yl]methyl]pyrazol-4-yl]pyrazolo[1,5-a]pyrimidine-3-carboxamide] | 0.38 | 0.39 | 110 |
| CC(C)Sc1ccc(OC(F)F)c(-c2nn(Cc3nnn(C4CN(C5CCN(C)CC5)C4)n3)cc2NC(=O)c2cnn3cccnc23)c1 [Example 79, N-[3-[2-(difluoromethoxy)-5-isopropylsulfanyl-phenyl]-1-[[2-[1-(1-methyl-4-piperidyl)azetidin-3-yl]tetrazol-5-yl]methyl]pyrazol-4-yl]pyrazolo[1,5-a]pyrimidine-3-carboxamide] | 0.5 | 0.44 | 40 |

Further lines, with some results ahead:

| Ki [1] [nM] | Ki [2] [nM] | SMILES | IC50 [3] [nM] |
| --- | --- | --- | --- |
| 0.84 | 0.73 | CN1CC(CN2CC(n3nnc(Cn4cc(NC(=O)c5cnn6cccnc56)c(-c5cc(OC(F)F)ccc5OC(F)F)n4)n3)C2)C1 [Example 56, N-[3-[2,5-bis(difluoromethoxy)phenyl]-1-[[2-[1-[(1-methylazetidin-3-yl)methyl]azetidin-3-yl]tetrazol-5-yl]methyl]pyrazol-4-yl]pyrazolo[1,5-a]pyrimidine-3-carboxamide] | 80 |
| 1 | 0.71 | CN(C)C1CCN(CCn2nnc(Cn3cc(NC(=O)c4cnn5cccnc45)c(-c4cc(OC(F)F)ccc4OC(F)F)n3)n2)CC1 [Example 59, N-[3-[2,5-bis(difluoromethoxy)phenyl]-1-[[2-[2-[4-(dimethylamino)-1-piperidyl]ethyl]tetrazol-5-yl]methyl]pyrazol-4-yl]pyrazolo[1,5-a]pyrimidine-3-carboxamide] | 62 |
| 0.81 | 0.97 | CN(C)C1CCN(CCn2nnnc2Cn2cc(NC(=O)c3cnn4cccnc34)c(-c3cc(OC(F)F)ccc3OC(F)F)n2)CC1 [Example 60, N-[3-[2,5-bis(difluoromethoxy)phenyl]-1-[[1-[2-[4-(dimethylamino)-1-piperidyl]ethyl]tetrazol-5-yl]methyl]pyrazol-4-yl]pyrazolo[1,5-a]pyrimidine-3-carboxamide] | 70 |
| 0.64 | 0.46 | CN(C)[C@H]1C[C@@H](n2nnc(Cn3cc(NC(=O)c4cnn5cccnc45)c(-c4cc(OC(F)F)ccc4OC(F)F)n3)n2)C1 [Example 63, N-[3-[2,5-bis(difluoromethoxy)phenyl]-1-[[2-[3-(dimethylamino)cyclobutyl]tetrazol-5-yl]methyl]pyrazol-4-yl]pyrazolo[1,5-a]pyrimidine-3-carboxamide] | 22 |
| 0.87 | 0.55 | CN(C)[C@H]1C[C@H](n2nnc(Cn3cc(NC(=O)c4cnn5cccnc45)c(-c4cc(OC(F)F)ccc4OC(F)F)n3)n2)C1 [Example 64, N-[3-[2,5-bis(difluoromethoxy)phenyl]-1-[[2-[3-(dimethylamino)cyclobutyl]tetrazol-5-yl]methyl]pyrazol-4-yl]pyrazolo[1,5-a]pyrimidine-3-carboxamide; formic acid] | 17 |
| 0.41 | 0.3 | CN(C)C1CCC(n2nnc(Cn3cc(NC(=O)c4cnn5cccnc45)c(-c4cc(OC(F)F)ccc4OC(F)F)n3)n2)CC1 (stereo not drawn) [Example 66, N-[3-[2,5-bis(difluoromethoxy)phenyl]-1-[[2-[4-(dimethylamino)cyclohexyl]tetrazol-5-yl]methyl]pyrazol-4-yl]pyrazolo[1,5-a]pyrimidine-3-carboxamide] | 32 |
| 1.4 | 1.1 | CN(C)[C@H]1C[C@@H](N2CC(n3nnc(Cn4cc(NC(=O)c5cnn6cccnc56)c(-c5cc(OC(F)F)ccc5OC(F)F)n4)n3)C2)C1 [Example 71, N-[3-[2,5-bis(difluoromethoxy)phenyl]-1-[[2-[1-[3-(dimethylamino)cyclobutyl]azetidin-3-yl]tetrazol-5-yl]methyl]pyrazol-4-yl]pyrazolo[1,5-a]pyrimidine-3-carboxamide] | 23 |
| 0.46 | 0.41 | CN(C)C1(CCN2CC(n3nnc(Cn4cc(NC(=O)c5cnn6cccnc56)c(-c5cc(OC(F)F)ccc5OC(F)F)n4)n3)C2)CC1 [Example 80, N-[3-[2,5-bis(difluoromethoxy)phenyl]-1-[[2-[1-[2-[1-(dimethylamino)cyclopropyl]ethyl]azetidin-3-yl]tetrazol-5-yl]methyl]pyrazol-4-yl]pyrazolo[1,5-a]pyrimidine-3-carboxamide; formic acid] | 40 |
